Data reported in ChEMBL document CHEMBL5500371, “Arginine and tryptophan-rich dendritic antimicrobial peptides that disrupt membranes for bacterial infection in vivo” (Eur J Med Chem, 2024).
Activity calls are given as the source filed them. The calls are words filed in the database; no cut-off is given here. Where a SMILES comes first, the peptide text is derived from it. Side-chain parts run from the residue outwards.

Legend:
[1] = Acute toxicity in male BALB/c mouse assessed as loss of appetite at 80 to 130 mg/kg, ip administered as single dose and measured after 3 days; type: organism-based; conditions: in vivo, 72 h, dose 80-130 mg/kg, time 3 day
[2] = system: Escherichia coli; assay: Additive antibacterial activity against Escherichia coli ATCC 25922 assessed as fractional inhibitory concentration index at 0.25 to 4 times MIC incubated for 20 hrs in presence of vancomycin by checkerboard assay; type: functional
[3] = system: Escherichia coli; assay: Antibacterial activity against Escherichia coli ATCC 25922 assessed as inhibition of bacterial growth incubated for 20 hrs in presence of FeCl3 by broth microdilution method (reference value: 8 microM); type: functional
[4] = Acute toxicity in ip dosed male BALB/c mouse administered as single dose; type: organism-based; conditions: male, BALB/c, in vivo, read-out: LD50
[5] = system: Cell membrane; assay: Disruption of cell membrane morphology in Staphylococcus aureus assessed as partial creasing in bacterial membrane at 2 times MIC measured after 0.5 to 2 hrs by SEM analysis; type: cell membranes; conditions: time 0.5-2 hrs
[6] = system: Staphylococcus aureus; assay: Antibacterial activity against Staphylococcus aureus ATCC 25923 assessed as inhibition of bacterial growth incubated for 20 hrs in presence of NaCl by broth microdilution method (reference value: 8 microM); type: functional
[7] = system: Staphylococcus aureus; assay: Antibacterial activity against Staphylococcus aureus ATCC 25923 assessed as inhibition of bacterial growth incubated for 20 hrs in presence of FeCl3 by broth microdilution method (reference value: 8 microM); type: functional
[8] = Systemic toxicity in male BALB/c mouse assessed as lung inflammatory cell infiltration at 105.41 mg/kg, ip administered as single dose by H and E staining based analysis; type: organism-based; conditions: in vivo
[9] = system: Escherichia coli; assay: Antibacterial activity against Escherichia coli ATCC 25922 assessed as inhibition of bacterial growth incubated for 20 hrs in presence of KCl by broth microdilution method (reference value: 8 microM); type: functional
[10] = system: Escherichia coli; assay: Antibacterial activity against Escherichia coli ATCC 25922 assessed as inhibition of bacterial growth incubated for 20 hrs in presence of NaCl by broth microdilution method (reference value: 8 microM); type: functional
[11] = system: Escherichia coli; assay: Antibacterial activity against Escherichia coli ATCC 25922 assessed as inhibition of bacterial growth incubated for 20 hrs in presence of ZnCl2 by broth microdilution method (reference value: 8 microM); type: functional
[12] = system: Escherichia coli; assay: Antibacterial activity against Escherichia coli ATCC 25922 assessed as inhibition of bacterial growth incubated for 20 hrs in presence of FeCl3 by broth microdilution method (reference value: 16 microM); type: functional
[13] = system: Escherichia coli; assay: Additive antibacterial activity against rifampicin resistant Escherichia coli ATCC 25922 assessed as fractional inhibitory concentration index at 0.25 to 4 times MIC incubated for 20 hrs in presence of rifampicin by checkerboard assay; type: functional
[14] = system: Escherichia coli; assay: Antibacterial activity against Escherichia coli ATCC 25922 assessed as inhibition of bacterial growth incubated for 20 hrs in presence of KCl by broth microdilution method (reference value: 16 microM); type: functional
[15] = system: Staphylococcus aureus; assay: Additive antibacterial activity against gentamicin resistant Staphylococcus aureus ATCC 25923 assessed as fractional inhibitory concentration index at 0.25 to 4 times MIC incubated for 20 hrs in presence of gentamicin by checkerboard assay; type: functional
[16] = system: Staphylococcus aureus; assay: Additive antibacterial activity against rifampicin resistant Staphylococcus aureus ATCC 25923 assessed as fractional inhibitory concentration index at 0.25 to 4 times MIC incubated for 20 hrs in presence of rifampicin by checkerboard assay; type: functional
[17] = system: Escherichia coli; assay: Additive antibacterial activity against Escherichia coli ATCC 25922 assessed as fractional inhibitory concentration index at 0.25 to 4 times MIC incubated for 20 hrs in presence of gentamicin by checkerboard assay; type: functional
[18] = Systemic toxicity in male BALB/c mouse assessed as renal cell necrosis at 109.31 mg/kg, ip administered as single dose by H and E staining based analysis; type: organism-based; conditions: in vivo
[19] = system: Escherichia coli; assay: Additive antibacterial activity against Escherichia coli ATCC 25922 assessed as fractional inhibitory concentration index at 0.25 to 4 times MIC incubated for 20 hrs in presence of rifampicin by checkerboard assay; type: functional
[20] = system: Escherichia coli; assay: Additive antibacterial activity against Escherichia coli ATCC 25922 assessed as fractional inhibitory concentration index at 0.25 to 4 times MIC incubated for 20 hrs in presence of kanamycin by checkerboard assay; type: functional
[21] = system: Staphylococcus aureus; assay: Antibacterial activity against Staphylococcus aureus ATCC 25923 assessed as inhibition of bacterial growth upto 200 ug/ml pretreated with trypsin for 6 hrs and measured after 18 hrs by absorbance based method; type: functional, organism-based; conditions: dose <= 200.0 µg/ml, time 24.0 hrs
[22] = system: Escherichia coli; assay: Antibacterial activity against Escherichia coli ATCC 25922 assessed as inhibition of bacterial growth incubated for 20 hrs in presence of MgCl2 by broth microdilution method (reference value: 4 microM); type: functional, organism-based
[23] = system: Escherichia coli; assay: Synergistic antibacterial activity against Escherichia coli ATCC 25922 assessed as fractional inhibitory concentration index at 0.25 to 4 times MIC incubated for 20 hrs in presence of gentamicin by checkerboard assay; type: functional, organism-based
[24] = system: Cell membrane; assay: Induction of cell membrane damage in Escherichia coli assessed as PI uptake at 2 times MIC measured after 2 hrs by PI dye based flow cytometry analysis (reference value: 16.5%); type: cell membranes
[25] = system: Escherichia coli; assay: Synergistic antibacterial activity against Escherichia coli ATCC 25922 assessed as fractional inhibitory concentration index at 0.25 to 4 times MIC incubated for 20 hrs in presence of rifampicin by checkerboard assay; type: functional, organism-based
[26] = system: Escherichia coli; assay: […] activity against Escherichia coli ATCC 25922 infected in male BALB/c pulmonary infection model assessed as reduction in liver bleeding at 10 mg/kg, ip administered at 3 and 12 hrs post infection and measured 24 hrs post infection by H and E staining based analysis; type: functional, organism-based; conditions: time 12-21 hrs
[27] = system: Escherichia coli; assay: Antibacterial activity against Escherichia coli ATCC 25922 assessed as inhibition of bacterial growth incubated for 20 hrs in presence of NaCl by broth microdilution method (reference value: 4 microM); type: functional, organism-based
[28] = system: Escherichia coli; assay: Resistant development in Escherichia coli assessed as increase in MIC at sub-MIC measured after 20 passages; type: functional, organism-based
[29] = system: Escherichia coli; assay: […] activity against Escherichia coli ATCC 25922 infected in male BALB/c pulmonary infection model assessed as reduction in lung inflammation at 10 mg/kg, ip administered at 3 and 12 hrs post infection and measured 24 hrs post infection by H and E staining based analysis; type: functional, organism-based; conditions: time 12-21 hrs
[30] = system: Escherichia coli; assay: Bactericidal activity against Escherichia coli ATCC 25922 assessed as elimination of bacteria at 2 times MIC measured after 1 hrs by time kill assay; type: functional, organism-based
[31] = system: Cell membrane; assay: Induction of cell membrane damage in Staphylococcus aureus assessed as PI uptake at 2 times MIC measured after 2 hrs by PI dye based flow cytometry analysis (reference value: 28.8%); type: cell membranes
[32] = system: Staphylococcus aureus; assay: Resistant development in Staphylococcus aureus assessed as increase in MIC at sub-MIC measured after 20 passages; type: functional, organism-based
[33] = system: Escherichia coli; assay: Synergistic antibacterial activity against rifampicin resistant Escherichia coli ATCC 25922 assessed as fractional inhibitory concentration index at 0.25 to 4 times MIC incubated for 20 hrs in presence of rifampicin by checkerboard assay; type: functional, organism-based

N=C(N)NCCC[C@H](NC(=O)[C@H](CCCNC(=N)N)NC(=O)[C@H](CCCNC(=N)N)NC(=O)[C@@H](N)CCCNC(=N)N)C(=O)N[C@@H](CCCCN)C(=O)N[C@@H](Cc1c[nH]c2ccccc12)C(=O)N[C@@H](Cc1c[nH]c2ccccc12)C(=O)N[C@@H](Cc1c[nH]c2ccccc12)C(=O)N[C@@H](Cc1c[nH]c2ccccc12)C(N)=O
Activity [1]: Toxic | fractional inhibitory concentration index (FICI) [2]: 0.625 | MIC [3]: 16 µM | LD50 [4]: 105 mg/kg | Activity [5]: Active | MIC [6]: 8 µM | MIC [7]: 8 µM | Activity [8]: Non-Toxic | MIC [9]: 16 µM | MIC [10]: 16 µM | MIC [11]: 8 µM

N=C(N)NCCC[C@H](NC(=O)[C@@H](N)CCCNC(=N)N)C(=O)NCCCC[C@H](NC(=O)[C@H](CCCNC(=N)N)NC(=O)[C@@H](N)CCCNC(=N)N)C(=O)N[C@@H](Cc1c[nH]c2ccccc12)C(=O)N[C@@H](Cc1c[nH]c2ccccc12)C(=O)N[C@@H](Cc1c[nH]c2ccccc12)C(=O)N[C@@H](Cc1c[nH]c2ccccc12)C(N)=O (H-RRK([Arg-Arg])WWWW-NH2)
Activity [1]: Toxic | MIC [12]: 16 µM | fractional inhibitory concentration index (FICI) [13]: 0.563 | MIC [14]: 16 µM | fractional inhibitory concentration index (FICI) [15]: 0.563 | fractional inhibitory concentration index (FICI) [16]: 0.563 | fractional inhibitory concentration index (FICI) [17]: 0.563 | fractional inhibitory concentration index (FICI) [2]: 0.563 | Activity [18]: Non-Toxic | fractional inhibitory concentration index (FICI) [19]: 0.563 | fractional inhibitory concentration index (FICI) [20]: 0.563 | Activity [21]: Active | LD50 [4]: 109 mg/kg | Activity [5]: Active

POLYMYXIN B
MIC [22]: 2 µM | fractional inhibitory concentration index (FICI) [23]: 0.313 | fractional inhibitory concentration index (FICI) [15]: 1 | Activity [24]: 46.8% | fractional inhibitory concentration index (FICI) [25]: 0.313 | Activity [26]: inactive | MIC [27]: 4 µM | Activity [28]: inactive | Activity [29]: inactive | Activity [30]: 100% | Activity [31]: 76.2% | Activity [32]: inactive | fractional inhibitory concentration index (FICI) [33]: 0.313
